Measured values from publication PMC9370035, “Identification of 3-Oxindole Derivatives as Small Molecule HIV-1 Inhibitors Targeting Tat-Mediated Viral Transcription” (Molecules, 2022).

How the values were obtained:
HIV-1NL4-3 [1] = experiment: HIV-1 infectivity assay in TZM-bl cells (F-Luc under HIV-1 LTR); format: cell-based; settings: Human immunodeficiency virus 1, NL43, TZM-bl; for inhibition at 3 µM: 48 h, read-out: Inhibition of HIV-1 Infectivity (%), TZM-bl cells, 3 μM, HIV-1 NL4-3 at MOI of 1, 48 h; for IC50: read-out: IC50 (inhibition of HIV-1 infection)
From the text: TZM-bl cells (also referred as JC53BL-13) expressing human CD4, CXCR4, and CCR5 in order to facilitate HIV-1 infection, which contain the firefly luciferase (F-Luc) gene under the control of HIV-1 long terminal repeat (LTR) promoter was used to determine inhibitory effect of the compounds on HIV-1 infection, as described previously with minor modifications. […] Without replacement of a culture medium, the cells were then infected with the HIV-1NL4-3 strain at a multiplicity of infection (MOI) of 1 to determine the exact inhibitory effect of compounds on a single round infection. After 48 h, the inhibitory effect of the compounds was determined using a Bright Glo luciferase assay kit (Promega). The infectivity data are presented as a percentage relative to the DMSO control (vehicle). The inhibitory effects of the compounds on viral replication were determined with some minor modifications, as described previously. […] PBMCs were pre-activated with phytohemagglutinin M (PHA-M) for 3 days. The pre-activated 4 × 10^5 of PBMCs were washed with fresh media to remove excess PHA-M and then infected with HIV-1NL4-3 or HIV-1AD8 as that of A3.01 infection.

[2] = Cell viability (resazurin-based PrestoBlue) in parallel with infectivity assay; settings: human, TZM-bl cells; for viability at 48 h, 3 µM: with infection of HIV-1 NL4-3 at MOI of 1; for CC50 at 48 h: serial dilution starting from 100 μM, read-out: CC50 (concentration that reduces cell viability by 50%)
TZM-bl cells = experiment: as above; settings: 3 μM, with infection of HIV-1 NL4-3 at MOI of 1
HIV-1NL4-3 [3] = experiment: HIV-1 replication assay (p24 […]) in A3.01 T cell line; format: cell-based; settings: A3.01 cells, HIV-1NL4-3 MOI 0.1, 1.5 μM, 72 h
Protocol: (§1) TZM-bl cells (also referred as JC53BL-13) expressing human CD4, CXCR4, and CCR5 in order to facilitate HIV-1 infection, which contain the firefly luciferase (F-Luc) gene under the control of HIV-1 long terminal repeat (LTR) promoter was used to determine inhibitory effect of the compounds on HIV-1 infection, as described previously with minor modifications. In brief, 1 × 10^4 cells were cultured in 96-well plates for 24 h and then treated with compounds at a final concentration of 3 μM (Figure 1A) or with 1:2 serially diluted compounds at concentrations ranging from 0 to 25 μM (dose-response assay; Figure 1B and Table 2). Without replacement of a culture medium, the cells were then infected with the HIV-1NL4-3 strain at a multiplicity of infection (MOI) of 1 to determine the exact inhibitory effect of compounds on a single round infection. After 48 h, the inhibitory effect of the compounds was determined using a Bright Glo luciferase assay kit (Promega). The infectivity data are presented as a percentage relative to the DMSO control (vehicle). The inhibitory effects of the compounds on viral replication were determined with some minor modifications, as described previously. In brief, 5 × 10^4 cells/ well of A3.01 cells were infected with HIV-1NL4-3 at an MOI of 0.1 with the spinoculation at 300 g for 2 h at 25 °C. PBMCs were pre-activated with phytohemagglutinin M (PHA-M) for 3 days. The pre-activated 4 × 10^5 of PBMCs were washed with fresh media to remove excess PHA-M and then infected with HIV-1NL4-3 or HIV-1AD8 as that of A3.01 infection. After infection, the infectious media were replaced with fresh media (supplemented with international 10 units (IU)/mL of IL-2 for PBMCs containing 1.5 μM of compounds. At 72 h after infection, the inhibitory effect of the compounds on viral replication was determined by measuring the amount of p24, an HIV capsid protein, using an HIV-1 p24 […]™ kit (PerkinElmer, Waltham, MA, USA). Cell viability was determined by using the resazurin-based PrestoBlue™ cell viability reagent (Thermo Fisher Scientific, Waltham, MA, USA) according to the manufacturer’s protocols.

HIV-1NL4-3 [4] = experiment: HIV-1 replication assay (p24 […]) in PBMCs, CXCR4 tropic strain; format: cell-based; settings: HIV-1NL4-3 MOI 0.1, 1.5 μM, 72 h
Protocol: as §1

HIV-1Ad8 = experiment: HIV-1 replication assay (p24 […]) in PBMCs, CCR5 tropic strain; format: cell-based; settings: CCR5 tropic HIV-1Ad8 MOI 0.1, 1.5 μM, 72 h
Protocol: TZM-bl cells (also referred as JC53BL-13) expressing human CD4, CXCR4, and CCR5 in order to facilitate HIV-1 infection, which contain the firefly luciferase (F-Luc) gene under the control of HIV-1 long terminal repeat (LTR) promoter was used to determine inhibitory effect of the compounds on HIV-1 infection, as described previously with minor modifications. In brief, 1 × 10^4 cells were cultured in 96-well plates for 24 h and then treated with compounds at a final concentration of 3 μM (Figure 1A) or with 1:2 serially diluted compounds at concentrations ranging from 0 to 25 μM (dose-response assay; Figure 1B and Table 2). Without replacement of a culture medium, the cells were then infected with the HIV-1NL4-3 strain at a multiplicity of infection (MOI) of 1 to determine the exact inhibitory effect of compounds on a single round infection. After 48 h, the inhibitory effect of the compounds was determined using a Bright Glo luciferase assay kit (Promega). The infectivity data are presented as a percentage relative to the DMSO control (vehicle). The inhibitory effects of the compounds on viral replication were determined with some minor modifications, as described previously. In brief, 5 × 10^4 cells/ well of A3.01 cells were infected with HIV-1NL4-3 at an MOI of 0.1 with the spinoculation at 300 g for 2 h at 25 °C. PBMCs were pre-activated with phytohemagglutinin M (PHA-M) for 3 days. […]

[5] = tested on: Tat-mediated HIV-1 transcription; experiment: microbe, parasite or virus in culture; format: cell-based; settings: for IC50: Human immunodeficiency virus 1, 24 h, read-out: IC50 (inhibition of Tat-mediated HIV-1 transcription)
Protocol: (§2) bl-DTR (TZM-bl-derived dual Tat reporter) cells derived from TZM-bl cells by insertion of two doxycycline-inducible lentiviral vector-expressing flag-tagged tat and Renilla-luciferase (R-Luc) genes were used to determine simultaneously both activities of Tat-mediated HIV-1 transcription and general cellular transcription, as described previously. Determination of the inhibitory effect of the compounds on Tat-mediated transcription was performed as described previously. In brief, 1 × 10^4 of bl-DTR cells cultured in 96-well plates were treated with compounds at a final concentration of 3 μM (Figure 3C) or with 1:2 serially diluted compounds at concentrations ranging from 0 to 25 μM (Figure 4 and Table 3). Subsequently, doxycycline was treated at a final concentration of 50 ng/mL to induce Tat-mediated F-Luc and R-Luc. At 24 h after treatment, the activities of F-Luc and R-Luc were determined by using a Dual-Glo™ luciferase assay system (Promega, Madison, WI, USA) according to the manufacturer’s protocols. The data are presented as a percentage relative to the DMSO control (vehicle) in the presence of doxycycline, and the experiment was performed in triplicate.

Tat protein = experiment: Cellular expression level of Tat protein; format: cell-based, HIV-1; settings: manuscript in preparation [26]
Tat = experiment: Nuclear localization of Tat; format: cell-based, HIV-1; settings: manuscript in preparation [26]
Tat and cyclin T1 = Tat and cyclin T1 (Human immunodeficiency virus type 1 group M subtype B, UniProt P04608); experiment: Interaction between Tat and cyclin T1; settings: manuscript in preparation [26]
Chain of Tat and cyclin T1 (P04608 whole entry): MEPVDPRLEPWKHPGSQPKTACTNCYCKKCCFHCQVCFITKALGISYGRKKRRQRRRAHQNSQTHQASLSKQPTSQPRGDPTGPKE

Tat with TAR RNA = Tat with TAR RNA (Human immunodeficiency virus type 1 group M subtype B, UniProt P04608); experiment: Association of Tat with TAR RNA; parameters: species or system HIV-1; settings: manuscript in preparation [26]
Chain of Tat with TAR RNA (P04608 whole entry): as above

[6] = tested on: general cellular transcription; experiment: R-Luc activity in bl-DTR cells (general cellular transcription); format: cell-based; settings: high dosages (12.5 μM and 25 μM)
Protocol: as §2

[7] = molecular target: HIV-1 reverse transcriptase (RTase) (Human immunodeficiency virus type 1 group M subtype B, UniProt P12497); settings: A3.01 cells, 10 μM, HIV-1NL4-3, 16 h after infection
From the text: (forward) and 5′-[…] (reverse). […] (forward) and 5′-[…] (reverse).

Structure (SMILES)	inhibition at 3 µM (HIV-1NL4-3 [1])	IC50 (HIV-1NL4-3 [1])	viability at 48 h, 3 µM [2]	CC50 at 48 h [2]	Cell Viability (%) (TZM-bl cells)	Inhibitory effect on viral replication (p24) (HIV-1NL4-3 [3])	Inhibitory effect on viral replication (p24) (HIV-1NL4-3 [4])	Inhibitory effect on viral replication (p24) (HIV-1Ad8)	IC50 [5]	Concentration of complete inhibition of Tat-induced transcriptional activity ([5]; bl-DTR cells, concentration response)	Inhibition of cellular expression level of Tat protein (Tat protein)	Inhibition of nuclear localization of Tat (Tat)	Inhibition of interaction between Tat and cyclin T1 (Tat and cyclin T1)	Inhibition of association of Tat with TAR RNA (Tat with TAR RNA)	melting point	R-Luc activity [6]	Inhibition of RTase activity (level of HIV-1 RT product) [7]
COC(=O)C1(C/C=C/Cl)Nc2cc(C)cc(C)c2C1=O (centres unmarked) [Compound 6f, Methyl (E)-2-(3-chloroallyl)-4,6-dimethyl-3-oxindole-2-carboxylate]	91.9 ± 1.78%	458 ± 22.7 nM	93 ± 5.39%	51000 ± 4440 nM	without cytotoxicity	near-complete abrogation	near-complete abrogation	inhibited replication	1200 ± 40 nM	approximately 6 μM	did not inhibit	did not inhibit	did not inhibit	did not inhibit	> 300 °C	–	–
COC(=O)C1(CC=C(Cl)Cl)Nc2cc(C)cc(C)c2C1=O (centres unmarked) [Compound 6g, Methyl 2-(3,3-dichloroallyl)-4,6-dimethyl-3-oxindole-2-carboxylate]	85.4 ± 1.44%	1280 ± 959 nM	87.9 ± 0.82%	43600 ± 10500 nM	–	half inhibition	half inhibition	inhibited replication	2850 ± 630 nM	–	did not inhibit	did not inhibit	did not inhibit	did not inhibit	> 300 °C	decrease in R-Luc activity	–
O=C1Nc2ccc(Cl)cc2[C@@](C#CC2CC2)(C(F)(F)F)O1 [EFV, efavirenz, reference compound]	–	< 50 nM	–	34200 ± 590 nM	–	–	–	–	–	–	–	–	–	–	–	–	inhibited
